Where two headings read alike, the source gives them in different places.
Experiments:
Experiment in all cases: 72-hour CellTiter-Glo 2.0 growth inhibition screen (single agent, 9x9 combination dose matrix);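 on Best CI Level: inhibition effect level at which the best CI was calculated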
Type in all cases: cell-based
[1] = tested on: Gp2D; conditions: for EC50: GP2d;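 on Best CI Level: inhibition effect level at which the best CI was calculated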
[2] = tested on: HPAF-II;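 on Best CI Level: inhibition effect level at which the best CI was calculated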
[3] = tested on: KYSE-410; conditions: for EC50: KYSE-410, 72 h;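 on Best CI Level: inhibition effect level at which the best CI was calculated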
[4] = tested on: SW48 KRAS (G12C/+); conditions: for EC50: SW48, 72 h, read-out: EC50;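 on Best CI Level: inhibition effect level at which the best CI was calculated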
[5] = tested on: TOV-21G;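 on Best CI Level: inhibition effect level at which the best CI was calculated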
[6] = Gp2D (KRAS G12D), enhancer + MEI-522 (Voruciclib), 72 h;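 on Best CI Level: inhibition effect level at which the best CI was calculated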
[7] = Gp2D, Colorectal, Additional Single Agent Responses (inhibition, % I), 72 h
[8] = enhancer combined with MEI-522 (Voruciclib), Gp2D (Colorectal), 72 hours, inhibition data
[9] = HPAF-II (KRAS G12D), enhancer + MEI-522 (Voruciclib), 72 h;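 on Best CI Level: inhibition effect level at which the best CI was calculated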
[10] = enhancer combined with MEI-522 (Voruciclib), HPAF-II (Pancreas), 72 hours, inhibition data
[11] = Homo sapiens, KYSE-410, Esophageal, Additional Single Agent Responses (inhibition, % I), 72 h
[12] = Homo sapiens, KYSE-410, Esophageal, growth inhibition (GI) curve, single agent, 72 h
[13] = KYSE-410 (KRAS G12C), enhancer + MEI-522 (Voruciclib), 72 h;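 on Best CI Level: inhibition effect level at which the best CI was calculated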
[14] = enhancer combined with MEI-522 (Voruciclib), KYSE-410 (Esophageal), 72 hours, inhibition data
[15] = Homo sapiens, SW48 KRAS (G12C/+), Colorectal, Additional Single Agent Responses (inhibition, % I), 72 h
[16] = Homo sapiens, SW48 KRAS (G12C/+), Colorectal, growth inhibition (GI) curve, single agent, 72 h
[17] = SW48 KRAS (G12C/+), enhancer + MEI-522 (Voruciclib), 72 h
[18] = enhancer combined with MEI-522 (Voruciclib), SW48 KRAS (G12C/+) (Colorectal), 72 hours, inhibition data
[19] = TOV-21G (KRAS G13C), enhancer + MEI-522 (Voruciclib), 72 h;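 on Best CI Level: inhibition effect level at which the best CI was calculated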
[20] = enhancer combined with MEI-522 (Voruciclib), TOV-21G (Ovary), 72 hours, inhibition data

## CC[C@@H]1C(=O)N(C)c2cnc(Nc3ccc(C(=O)N[C@H]4CC[C@H](N5CCN(CC6CC6)CC5)CC4)cc3OC)nc2N1C(C)C [Volasertib]
[1]; 72 h, Colorectal, Additional Single Agent Responses (inhibition, % I)
  EC50: 2.1 nM
[1]; 72 h, Colorectal, growth inhibition (GI) curve, single agent
  EC50: 2.5 nM
[1]; [6]
  Best CI: 0.59
  Bliss Volume: 9.40
  HSA volume: 0.44
  Loewe Volume: 1.73
  Synergy Score: 15.26
[1]; [7]
  IC50: 2.4 nM
  Response Area: 4.53
[1]; Gp2D, Colorectal, Additional Single Agent Responses, 72 h, read-out: Max Response (% I)
  Emax: 91%
[1]; Gp2D, Colorectal, growth inhibition (GI) curve, single agent, 72 h
  GI50: 2.2 nM
[1]; Gp2D, Colorectal, growth inhibition (GI), AUC, single agent, 72 h
  Response Area: 6.83
[1]; Gp2D, Colorectal, growth inhibition (GI), single agent, 72 h, read-out: Max Response (% GI)
  Emax: 161%
[1]; [8]
  Best CI: 0.16
  Best CI Level: 80
  Bliss Volume: −1.26
  HSA volume: −0.27
  Loewe Volume: −0.15
  Synergy Score: 2.39
[2]; [9]
  Best CI: 0.66
  Bliss Volume: −0.85
  HSA volume: 0.04
  Loewe Volume: −0.80
  Synergy Score: 2.64
[2]; HPAF-II, Pancreas, Additional Single Agent Responses (inhibition, % I), 72 h
  Response Area: 3.45
[2]; HPAF-II, Pancreas, growth inhibition (GI), AUC, single agent, 72 h
  Response Area: 4.65
[2]; Homo sapiens, HPAF-II, 72 h, Pancreas, Additional Single Agent Responses (inhibition, % I)
  EC50: 3.9 nM
[2]; Homo sapiens, HPAF-II, 72 h, Pancreas, growth inhibition (GI) curve, single agent
  EC50: 3.9 nM
[2]; Homo sapiens, HPAF-II, Pancreas, Additional Single Agent Responses (inhibition, % I), 72 h
  IC50: 6.2 nM
[2]; Homo sapiens, HPAF-II, Pancreas, Additional Single Agent Responses, 72 h, read-out: Max Response (% I)
  Emax: 71%
[2]; Homo sapiens, HPAF-II, Pancreas, growth inhibition (GI) curve, single agent, 72 h
  GI50: 4.4 nM
[2]; Homo sapiens, HPAF-II, Pancreas, growth inhibition (GI), single agent, 72 h, read-out: Max Response (% GI)
  Emax: 95%
[2]; [10]
  Best CI: 0.52
  Bliss Volume: −2.61
  HSA volume: −0.36
  Loewe Volume: −0.96
  Synergy Score: 0.98
[2]; enhancer combined with MEI-522 (Voruciclib), HPAF-II (Pancreas), 72 hours, inhibition data, unit assumed
  Best CI Level: 70%
[3]; [11]
  EC50: 8.6 nM
  IC50: 13.1 nM
[3]; [12]
  EC50: 8.5 nM
  GI50: 10.1 nM
[3]; Homo sapiens, KYSE-410, Esophageal, Additional Single Agent Responses, 72 h, read-out: Max Response (% I)
  Emax: 74%
[3]; Homo sapiens, KYSE-410, Esophageal, growth inhibition (GI), single agent, 72 h, read-out: Max Response (% GI)
  Emax: 89%
[3]; [13]
  Best CI: 1.85
  Bliss Volume: −3.04
  HSA volume: −2.10
  Loewe Volume: −3.58
  Synergy Score: 0.91
[3]; KYSE-410, Esophageal, Additional Single Agent Responses (inhibition, % I), 72 h
  Response Area: 3.52
[3]; KYSE-410, Esophageal, growth inhibition (GI), AUC, single agent, 72 h
  Response Area: 4.24
[3]; [14]
  Best CI: 0.40
  Bliss Volume: −3.11
  HSA volume: −1.71
  Loewe Volume: −2.95
  Synergy Score: 0.62
[3]; enhancer combined with MEI-522 (Voruciclib), KYSE-410 (Esophageal), 72 hours, inhibition data, unit assumed
  Best CI Level: 70%
[4]; [15]
  EC50: 4.3 nM
  IC50: 4.6 nM
[4]; [16]
  EC50: 4.4 nM
  GI50: 4.4 nM
[4]; Homo sapiens, SW48 KRAS (G12C/+), Colorectal, Additional Single Agent Responses, 72 h, read-out: Max Response (% I)
  Emax: 90%
[4]; Homo sapiens, SW48 KRAS (G12C/+), Colorectal, growth inhibition (GI), single agent, 72 h, read-out: Max Response (% GI)
  Emax: 141%
[4]; SW48 KRAS (G12C/+), Colorectal, Additional Single Agent Responses (inhibition, % I), 72 h
  Response Area: 3.98
[4]; SW48 KRAS (G12C/+), Colorectal, growth inhibition (GI), AUC, single agent, 72 h
  Response Area: 5.48
[4]; [17]
  Best CI: 0.08
  Bliss Volume: 5.42
  HSA volume: 1.24
  Loewe Volume: 2.81
  Synergy Score: 11.77
[4]; [18]
  Best CI: 0.13
  Best CI Level: 80
  Bliss Volume: −0.04
  HSA volume: 0.65
  Loewe Volume: 1.39
  Synergy Score: 3.33
[5]; Homo sapiens, TOV21G, 72 h, TOV-21G, Ovary, Additional Single Agent Responses (inhibition, % I)
  EC50: 10 nM
[5]; Homo sapiens, TOV21G, 72 h, TOV-21G, Ovary, growth inhibition (GI) curve, single agent
  EC50: 13.8 nM
[5]; Homo sapiens, TOV21G, TOV-21G, Ovary, Additional Single Agent Responses (inhibition, % I), 72 h
  IC50: 11.6 nM
[5]; Homo sapiens, TOV21G, TOV-21G, Ovary, Additional Single Agent Responses, 72 h, read-out: Max Response (% I)
  Emax: 89%
[5]; Homo sapiens, TOV21G, TOV-21G, Ovary, growth inhibition (GI) curve, single agent, 72 h
  GI50: 8.4 nM
[5]; Homo sapiens, TOV21G, TOV-21G, Ovary, growth inhibition (GI), single agent, 72 h, read-out: Max Response (% GI)
  Emax: 163%
[5]; [19]
  Best CI: 0.56
  Bliss Volume: 2.45
  HSA volume: −4.18
  Loewe Volume: −6.03
  Synergy Score: 1.71
[5]; TOV-21G, Ovary, Additional Single Agent Responses (inhibition, % I), 72 h
  Response Area: 4.33
[5]; TOV-21G, Ovary, growth inhibition (GI), AUC, single agent, 72 h
  Response Area: 7.56
[5]; [20]
  Best CI: 0.76
  Best CI Level: 20
  Bliss Volume: −1.60
  HSA volume: −1.29
  Loewe Volume: −1.80
  Synergy Score: 0.60

Reference: patent US20240016781A1, “TREATMENT OF KRAS MUTANT CANCERS” (MEI Pharma, Inc., priority 2020, published 2024)
